From US7605166B2, “Methods and compositions for treating rheumatoid arthritis” (Elan Pharmaceuticals Inc., priority 2003, dated 2009)

Assays:
[1] = test system: murine collagen-induced arthritis (CIA) model; assay: Murine collagen-induced arthritis (CIA) model: clinical scores; format: in vivo, mouse; conditions: therapeutic CIA model, DBA/1LacJ mice, 100 mg/kg b.i.d.
Method: A murine collagen-induced arthritis (CIA) model was used to examine the pharmacological effect of anti-alpha4-integrin antibodies prophylactically, semi-therapeutically and therapeutically. Dosing of the antibody was begun on day 20 for the prophylactic animals. […] The results seen with the treatment of the CIA mice is seen in FIG. 1.
Peripheral blood leucocytes (PBLs) from mice treated with anti-alpha4, anti-α4β7 and anti-VCAM 1 antibodies were collected at 4, 12 and 24 hours after antibody dosing. Cells were stained with goat anti-rat antibodies to confirm antibodies in circulation.
The effect of the compound of Formula P was evaluated in a therapeutica CIA model. […] 100 DBA/1LacJ male mice, ages 6-8 weeks were obtained from Jackson Laboratories. The mice were immunized at Day 0 as follows: 100 μg bovine type II collagen (Chondrex) in Complete Freund's adjuvant (CFA, Sigma) were injected into the mice. At Day 21, another 100 μg bovine type II collagen (Chondrex) in Incomplete Freund's Adjuvant (IFA, Sigma) was injected into the mice. Treatment with the compound began when the animals had the disease (i.e., 100% therapeutic).
The mice are scored daily after the boost. […] Treatment continued for 3 weeks of dosing. Dosing was every other day for the antibody group and control group. […]

[2] = Blood levels of compound in CIA rats (12 hours trough); format: in vivo, rat; conditions: at 12 hours, all concentrations tested
Method: (§1) The results in FIG. 6 show the results for compounds. There were 8 rats per group in the efficacy study. Paw swelling and erythema were measured daily and the tarsal paws collected for histological analysis at the end of the study. Plasma which was heparinized was collected at 12 hours (i.e., the trough level) and at 4 horus after the last dose for compound measurement (FIG. 6).

AIA Rats = assay: Adjuvant-induced arthritis (AIA) in Lewis rats: paw swelling, erythema, histology; format: in vivo, rat
[3] = Plasma compound levels in AIA rats (4 and 12 hours); format: in vivo, rat; conditions: 12 hours after dosing, all concentrations tested (30, 10, 3 mg/kg)
rat CIA model = assay: Rat CIA model: paw swelling, erythema, histology; format: in vivo; conditions: rat CIA, 30, 10, 3 mg/kg b.i.d.; FIG. 6
Method: Anti alpha-4 antibodies, and the compounds of Formulae W and Y were tested in the rat CIA model according to the methods shown in Table 14 below.
as §1

blood levels of the compound relative to receptor saturation [2] | levels of the compound relative to receptor saturation [3] | Structure (SMILES) | disease progression [1] | disease (AIA Rats; Example F, all concentrations tested (30, 10, 3 mg/kg p.o. b.i.d.), FIG. 5) | disease severity (rat CIA model) | clinical and histological scores (AIA Rats; AIA model, 30 mg/kg b.i.d.) | disease severity (AIA Rats; Example F, 3 mg/kg s.c. b.i.d.)
above receptor saturation | above receptor saturation | CCN(CC)c1ncc(N(CC)S(=O)(=O)c2ccc(Cl)cc2)c(NC(Cc2ccc(OC(=O)N3CCCC3)cc2)C(=O)O)n1 (stereo not shown) [Formula P] | no effect on disease progression | ameliorate disease | – | – | –
– | – | CC(C)OC(=O)[C@H](Cc1ccc(OC(=O)N2CCN(C)CC2)cc1)NC(=O)[C@H]1N(S(=O)(=O)c2cccnc2)CSC1(C)C [Formula N, N-[N-(3-pyridinesulfonyl)-L-3,3-dimethyl-4-thiaprolyl]-O-[1-methylpiperazin-4-ylcarbonyl]-L-tyrosine isopropyl ester] | – | – | neither the compound of Formula N nor Y had any impact on disease severity | ameliorate clinical and histological scores | no effect on disease severity
